According to patent US11028072B2, “2,4-diamino-6-ethylpyrimidine derivatives with antimalarial activities against Plasmodium falciparum” (National Science and Technology Development Agency, priority 2015, dated 2021):
Read-outs that look alike come from different tables or passages of the source.

How the values were obtained:
in vitro = conditions: African green monkey
Text: (§1) In Vitro Antimalarial Activites Against P. falciparum and Cytotoxicity Towards Mammalian Cells (Vero Cells)

wild type (WT) pfDHFR = wild type (WT) pfDHFR (Plasmodium falciparum, UniProt P13922, N108S/R59C); test: Inhibition of wild type pfDHFR (Ki); type: biochemical
Experimental: (§2) The synthesized 2,4-diamino-6-ethylpyrimdine derivatives as the hydrochloride salts were tested for the activities against Plasmodium falciparum (P. falciparum) according to the standard methods. These include the inhibition of dihydrofolate reductase (DHFR) enzymes of P. falciparum including, wild type (WT) and quadruple mutants (N51IC59RS108NI164L) (QM). The inhibition was expressed as inhibition constants (Ki) in nano molar (nM).

[1] = biological target: quadruple mutant N51I + C59R + S108N + I164L (QM) pfDHFR (Plasmodium falciparum, UniProt P13922, I164L/N51I); test: Inhibition of quadruple mutant pfDHFR (Ki); type: biochemical
Experimental: as §2

[2] = test system: P. falciparum V1/S (N51I + C59R + S108 + I164L); test: microbe, parasite or virus in culture; type: cell-based, Plasmodium falciparum; conditions: Plasmodium falciparum, read-out: IC50 P. falciparum V1/S
Text: as §1

[3] = test system: P. falciparum TM4/8.2 (wild type); test: microbe, parasite or virus in culture; type: cell-based, Plasmodium falciparum; conditions: Plasmodium falciparum, read-out: IC50 P. falciparum TM4/8.2 (WT)
Text: as §1

[4] = biological target: T1, Human dihydrofolate reductase (hDHFR) (Homo sapiens, UniProt P00374); test: Inhibition of human dihydrofolate reductase (Ki); type: biochemical; conditions: human DHFR; hydrochloride salts
T1 sequence (P00374 1-187): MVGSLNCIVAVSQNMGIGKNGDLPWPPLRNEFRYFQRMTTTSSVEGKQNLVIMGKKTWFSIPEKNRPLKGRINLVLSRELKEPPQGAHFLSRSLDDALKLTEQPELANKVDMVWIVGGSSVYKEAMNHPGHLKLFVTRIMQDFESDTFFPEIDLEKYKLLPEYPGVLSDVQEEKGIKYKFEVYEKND

[5] = in vitro, quadruple mutant strain V1/S
[6] = in vitro, wild-type strain TM4/8.2

quadruple mutant N51I + C59R + S108N + I164L (QM) pfDHFR, sequence (P13922 whole entry N51I/I164L): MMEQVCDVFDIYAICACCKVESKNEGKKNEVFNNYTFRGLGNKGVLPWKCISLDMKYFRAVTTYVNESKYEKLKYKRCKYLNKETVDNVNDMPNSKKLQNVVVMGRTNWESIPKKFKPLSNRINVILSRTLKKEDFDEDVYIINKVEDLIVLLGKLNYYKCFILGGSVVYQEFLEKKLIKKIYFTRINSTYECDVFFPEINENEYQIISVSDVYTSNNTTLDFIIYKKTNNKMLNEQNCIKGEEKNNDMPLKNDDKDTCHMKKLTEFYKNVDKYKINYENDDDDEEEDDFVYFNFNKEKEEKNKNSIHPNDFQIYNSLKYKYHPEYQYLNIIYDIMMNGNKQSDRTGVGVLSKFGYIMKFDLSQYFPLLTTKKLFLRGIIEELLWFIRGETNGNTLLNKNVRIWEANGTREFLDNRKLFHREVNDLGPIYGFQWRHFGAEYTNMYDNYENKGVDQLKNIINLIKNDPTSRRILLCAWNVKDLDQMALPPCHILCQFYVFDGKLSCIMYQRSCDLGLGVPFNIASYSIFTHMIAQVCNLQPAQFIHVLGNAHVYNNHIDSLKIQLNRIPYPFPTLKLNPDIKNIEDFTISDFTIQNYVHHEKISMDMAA
wild type (WT) pfDHFR, sequence (P13922 whole entry R59C/N108S): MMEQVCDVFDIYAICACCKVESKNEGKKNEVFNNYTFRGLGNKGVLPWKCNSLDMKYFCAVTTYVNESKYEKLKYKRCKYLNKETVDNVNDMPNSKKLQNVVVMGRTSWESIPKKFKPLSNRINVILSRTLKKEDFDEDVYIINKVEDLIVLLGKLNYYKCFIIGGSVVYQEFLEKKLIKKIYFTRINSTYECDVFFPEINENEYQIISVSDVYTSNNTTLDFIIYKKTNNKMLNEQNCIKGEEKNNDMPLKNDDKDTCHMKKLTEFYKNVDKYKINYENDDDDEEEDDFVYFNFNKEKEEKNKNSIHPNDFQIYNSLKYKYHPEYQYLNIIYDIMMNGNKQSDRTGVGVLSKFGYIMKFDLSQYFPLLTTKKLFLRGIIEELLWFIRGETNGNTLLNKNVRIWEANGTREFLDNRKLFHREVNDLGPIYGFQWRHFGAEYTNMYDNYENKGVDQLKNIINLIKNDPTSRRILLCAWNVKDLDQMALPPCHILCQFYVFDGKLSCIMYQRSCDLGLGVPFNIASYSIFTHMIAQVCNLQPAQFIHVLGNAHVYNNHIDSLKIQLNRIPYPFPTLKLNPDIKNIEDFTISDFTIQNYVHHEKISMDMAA

| Compound | IC50 (in vitro) [nM] | Ki (wild type (WT) pfDHFR) [nM] | Ki [1] [nM] | IC50 [2, 5] [nM] | IC50 [3, 6] [nM] | Ki [4] [nM] | IC50 [2] [nM] | IC50 [3] [nM] | Ki hDHFR [4] |
| --- | --- | --- | --- | --- | --- | --- | --- | --- | --- |
| CCc1nc(N)nc(N)c1OCc1csc(-c2ccc(C)cc2)n1 [Compound 67] | 28900 ± 5740 | 0.81 ± 0.05 | 27.3 ± 1.45 | 19000 ± 6700 | 1020 ± 530 | > 100000 |  |  |  |
| CCc1nc(N)nc(N)c1OCc1csc(-c2ccc(Br)cc2)n1 [Compound 71] | > 25000 | 0.76 ± 0.15 | 24.3 ± 1.75 | 18700 ± 1900 | 1090 ± 440 | 203 ± 27.2 |  |  |  |
| CCc1nc(N)nc(N)c1-c1cn(CCCOc2ccc(Cl)cc2)nn1 [Compound 11] | 48700 ± 13600 | 1.12 ± 0.08 | 32.1 ± 8.31 | > 50000 | 2420 ± 550 | 1120 ± 91.4 |  |  |  |
| CCc1nc(N)nc(N)c1-c1cn(Cc2ccc(C(=O)O)cc2)nn1 [Compound 5] | > 10000 | 6.31 ± 0.4 | 7.61 ± 0.66 | > 10000 | 7950 ± 1380 | 196 ± 20.7 |  |  |  |
| CCc1nc(N)nc(N)c1OCc1csc(-c2ccccc2)n1 [Compound 60] | > 50000 | 1.02 ± 0.14 | 38.8 ± 5.58 | 20800 ± 1860 | 1200 ± 380 | 276 ± 16.7 |  |  |  |
| CCc1nc(N)nc(N)c1-c1cn(CCCOc2ccc(C(=O)OC)cc2)nn1 [Compound 12] | 47600 ± 6270 | 0.82 ± 0.06 | 34 ± 5.51 |  |  | 875 ± 27.9 | > 50000 | 970 ± 400 |  |
| CCc1nc(N)nc(N)c1-c1cn(CCOc2ccc(C(=O)OC)cc2)nn1 [Compound 10] | 38900 ± 2140 | 1.01 ± 0.04 | 6.96 ± 1.12 | 21000 ± 4490 | 880 ± 360 |  |  |  | High |
| CCc1nc(N)nc(N)c1OCc1coc(-c2cccc(C)c2)n1 [Compound 51] | 75900 ± 11000 | 0.44 ± 0.05 | 48 ± 1.54 | 21900 ± 5880 | 830 ± 50 | 256 ± 9.25 |  |  |  |
| CCc1nc(N)nc(N)c1OCc1coc(-c2cccc(OCC(=O)OCc3ccccc3)c2)n1 [Compound 53] | > 10000 | 0.83 ± 0.08 | 45.5 ± 5.02 | > 10000 | 1760 ± 670 | 681 ± 70.3 |  |  |  |
| CCc1nc(N)nc(N)c1OCCc1cn(-c2ccc(C(=O)O)cc2)nn1 [Compound 22] | > 50000 | 0.26 ± 0.04 | 4.64 ± 0.6 | > 50000 | 620 ± 180 |  |  |  | High |
| CCc1nc(N)nc(N)c1OCc1csc(-c2cccc(OCC(=O)OCc3ccccc3)c2)n1 [Compound 63] | > 50000 | 0.75 ± 0.1 | 33.9 ± 1.85 | > 50000 | 400 ± 70 | 118 ± 14.8 |  |  |  |
| CCc1nc(N)nc(N)c1OCc1cc(-c2ccc(F)cc2)no1 [Compound 34] | > 25000 | 1.01 ± 0.05 | 77.6 ± 14.8 |  |  | 1080 ± 93.7 | 18900 ± 4440 | 1600 ± 790 |  |
| CCc1nc(N)nc(N)c1OCCCc1cn(-c2cccc(C(=O)O)c2)nn1 [Compound 23] | > 25000 | 0.25 ± 0.02 | 0.42 ± 0.06 | 320 ± 120 | 6.4 ± 0.5 | 22.7 ± 2.76 |  |  |  |
| CCc1nc(N)nc(N)c1OCCCc1cc(-c2cccc(C#N)c2)no1 [Compound 47] | 560 | 0.27 ± 0.03 | 1.02 ± 0.07 |  |  | 21.4 ± 0.91 | 5510 ± 470 | 40 ± 7 |  |
| CCc1nc(N)nc(N)c1OCc1csc(-c2ccc(F)cc2)n1 [Compound 69] | > 25000 | 0.9 ± 0.18 | 45.6 ± 4.68 | > 25000 | 790 ± 380 | 318 ± 29.7 |  |  |  |
| CCc1nc(N)nc(N)c1OCc1cc(-c2cccc(OC)c2)no1 [Compound 38] | > 25000 | 0.55 ± 0.1 | 22.8 ± 3.09 | > 25000 | 570 ± 190 | 1080 ± 31 |  |  |  |
| CCc1nc(N)nc(N)c1OCc1cn(Cc2cccc(C(=O)O)c2)nn1 [Compound 26] | > 25000 | 19.5 ± 1.06 | 388 ± 26.2 | > 25000 | > 25000 |  |  |  | High |
| CCc1nc(N)nc(N)c1OCc1csc(-c2cccc(OCC(=O)O)c2)n1 [Compound 64] | > 50000 | 0.6 ± 0.04 | 41.3 ± 7.41 | > 50000 | 550 ± 120 | 184 ± 21.4 |  |  |  |
| CCc1nc(N)nc(N)c1OCc1csc(-c2ccc(OC)cc2)n1 [Compound 68] | 43500 ± 13400 | 0.46 ± 0.06 | 16 ± 1.27 |  |  | 186 ± 4.66 | 12900 ± 5710 | 450 ± 90 |  |
| CCc1nc(N)nc(N)c1OCc1cc(-c2ccc(Br)cc2)no1 [Compound 36] | > 25000 | 1.03 ± 0.2 | 64.6 ± 1.16 | 17500 ± 2960 | 2860 ± 560 | 1350 ± 104 |  |  |  |
| CCc1nc(N)nc(N)c1OCc1cn(-c2cccc([N+](=O)[O-])c2)nn1 [Compound 14] | > 50000 | 8.62 ± 1.15 | 237 ± 41.7 | 4430 ± 1130 | 3420 ± 610 | > 500000 |  |  |  |
| CCc1nc(N)nc(N)c1OCCc1coc(-c2ccccc2)n1 [Compound 58] | 5590 ± 1840 | 0.55 ± 0.02 | 4.63 ± 0.22 |  |  | 20.4 ± 2.1 | 53100 ± 15200 | 48 ± 21 |  |
| CCc1nc(N)nc(N)c1OCCc1coc(-c2ccc(C(=O)O)cc2)n1 [Compound 59] | > 10000 | 0.26 ± 0.01 | 1.56 ± 0.07 | > 10000 | 52 ± 10 | 17.4 ± 1.14 |  |  |  |
| CCc1nc(N)nc(N)c1OCc1cn(Cc2cc(F)c(O)c(F)c2)nn1 [Compound 27] | > 50000 | 9.41 ± 0.85 | 285 ± 14.1 | > 50000 | 16100 ± 6020 |  |  |  | High |
| CCc1nc(N)nc(N)c1OCCCc1cc(-c2ccc(Cl)cc2)no1 [Compound 45] | > 50000 | 1.99 ± 0.43 | 3.9 ± 0.68 | 6370 ± 1970 | 270 ± 80 | 37 ± 5.36 |  |  |  |
| CCc1nc(N)nc(N)c1OCCCc1cc(-c2cccc(C(=O)OC)c2)no1 [Compound 48] | 760 | 0.26 ± 0.07 | 0.87 ± 0.15 | 100 ± 30 | 45 ± 1.5 | 25.2 ± 8.9 |  |  |  |
| CCc1nc(N)nc(N)c1-c1cn(-c2ccccc2)nn1 [Compound 1] | > 50000 | 49.7 ± 4.18 | 6020 ± 772 | > 50000 | > 50000 |  |  |  | High |
| CCc1nc(N)nc(N)c1OCc1cn(-c2cccc(C(=O)OC)c2)nn1 [Compound 15] | > 50000 | 1.85 ± 0.36 | 208 ± 16.6 | 17600 ± 1500 | 730 ± 230 |  |  |  | High |
